{
  "source": "patent US20120258141A9",
  "about": "“Methods Of Immune Modulation” (UNIVERSITY OF MEDICINE AND DENTISTRY OF NEW JERSEY, priority 2010, published 2012)",
  "key": {"[1]": {"system": "A. actinomycetemcomitans biofilms", "test": "Activity against A. actinomycetemcomitans biofilms (XTT metabolic assay, crystal violet, plating)", "format": "cell-based, Aggregatibacter actinomycetemcomitans", "method": "Aggregatibacter actinomycetemcomitans 1005 (Aa) (obtained from Dr. Helen Schreiner, New Jersey Dental School) were cultured on TSB agar (4% trypticase soy broth, 0.6% yeast extract, 0.8% dextrose, 0.4% NaHCO3, 75 μg/mL bactracin, 5 μg/mL vancomycin) at 37° C., 10% CO2. Single colonies were inoculated to TSB broth in 75-cm^2 tissue culture flasks. Biofilm was harvest upon the 90% confluence and resuspended into 1 mL PBS. Resuspension was vortexed vigorously for 1 minute and allowed to settle for 10 minutes. The supernatant was then diluted to 2.5×10^7 before seeded to 96-well plates to obtain even biofilms. Porphyromonas gingivalis W381 (obtained from Dr. Christopher Cutler, Stony Brook University Dental School) were cultured on TSB-blood agar (3% trypticase soy broth, 5% defibrinated sheep blood, 5 hemin, 0.5 μg/mL menadione, and 0.2 mg/mL KNO3) in an anaerobic chamber (80% N2, 10% H2, and 10% CO2) at 37° C. For biofilm formation, the same protocol as Aa under anaerobic condition was used.\nAa biofilms were cultured into 96-well plates (tissue culture treated, Falcon) for 18 hours. Serial dilutions of the mimetic compounds were made in 100 μL RPMI-1640 without Phenol red and added directly to the wells. Plates were cultured at 37° C., 10% CO2 for 24 hours. Medium was removed, and cell viability was evaluated by XTT assay using the In Vitro Toxicology Assay Kit (Sigma) according to the manufacturer's protocol. Metabolic activity was measured by reading in a plate-reader at 450 nm. […] Colonies were counted after 72 hours. […]\nTo quantify the activity of AMP mimetics on biofilms, the activity against two bacterial species associated with periodontitis, A. actinomycetemcomitans and P. gingivalis was measured under conditions that lead to biofilm formation (Kaplan et al., J. Bacteriol. 2003, 185, 1399-1404; Davey, Periodontol 2000, 2006, 42, 27-35). […] After 24 hours, the growth medium was replaced with RPMI (without Phenol Red) and an XTT assay was carried out to quantify the metabolic activity. Metabolic activity was quantified by measuring the OD at 450 nm and 600 nm. […]"}, "[2]": {"system": "P. gingivalis biofilms", "test": "Activity against P. gingivalis biofilms (XTT metabolic assay, crystal violet)", "format": "cell-based, Porphyromonas gingivalis", "method": "Aggregatibacter actinomycetemcomitans 1005 (Aa) (obtained from Dr. Helen Schreiner, New Jersey Dental School) were cultured on TSB agar (4% trypticase soy broth, 0.6% yeast extract, 0.8% dextrose, 0.4% NaHCO3, 75 μg/mL bactracin, 5 μg/mL vancomycin) at 37° C., 10% CO2. Single colonies were inoculated to TSB broth in 75-cm^2 tissue culture flasks. Biofilm was harvest upon the 90% confluence and resuspended into 1 mL PBS. Resuspension was vortexed vigorously for 1 minute and allowed to settle for 10 minutes. The supernatant was then diluted to 2.5×10^7 before seeded to 96-well plates to obtain even biofilms. […]\nTo test the activity against P. gingivalis biofilms, strain 381 was grown in 96-well plates under conditions (i.e., grown in a 96-well plate for 21 days in an anaerobic chamber in Brain Heart Infusion (BHI) medium) that favor biofilm formation (Davey, Periodontol 2000, 2006, 42, 27-35). mPE was added in serial dilutions, incubated anaerobically for 24 hours, and the medium was replaced with XTT in RPMI. Metabolic activity was quantified as above. To confirm the ability of XTT to measure activity in the biofilm, the growth medium was removed, and biomass was quantified by crystal violet staining, followed by destaining and quantification of the optical density. Staining was quantified by reading A600. […]"}, "[3]": {"system": "IL-8 secretion, OKF6/TERT cell line", "test": "IL-1β-induced IL-8 secretion (ELISA) in gingival epithelial cells", "format": "cell-based, Human", "method": "(§1) The oral keratinocyte cell line OKF6/TERT (obtained from Dr. James Rhinewald, Harvard University) was cultured in Keratinocyte growth medium (Lonza) with hEGF, BPE (Bovine Pituitary Extract). Cells were subcultured in 6-well dishes 18 hours before stimulation. Cells were treated with 2 μg/mL, 5 μg/mL mPE with and without IL-1β stimulation (100 ng/mL, […]) for 2 hours, 4 hours and 18 hours. THP-1 cells were grown in suspension at RPMI 1640 with 10% FBS, and stimulated similarly.\n(§2) Growth medium from stimulated cultures was collected either by aspiration (from keratinocytes) or after centrifugation at 1000 rpm for 15 minutes (for THP-1 cells). Cell debris was removed by centrifugation at 8,000 g (12,000 rpm) for 10 minutes at 4° C. To quantify IL-8 levels, the Human IL-8 Single Analyte ELISArray Kit (SA bioscience, MD) was used according to the manufacturer's protocol. The Cellular Activation of Signaling ELISA kit IKBα (SA bioscience, MD) was used to quantify both phosphorylated and whole IkBα levels in OKF6/TERT cells grown in a 96-well plate. All assays were performed in duplicate.\n(§3) To examine the effect of mPE on the inflammatory response, gingival epithelial cells (the OKF6/TERT cell line) and the monocytic cell line, THP-1, were treated with rhIL-1β (100 ng/ml) in the presence of increasing concentrations (0, 2, or 5 ng/ml) of mPE. Secreted levels of IL-8 were measured by ELISA. […]"}, "[4]": {"system": "IL-8 secretion, THP-1 cells", "test": "IL-1β-induced IL-8 secretion (ELISA) in THP-1 cells", "format": "cell-based, Human", "method": "as §1, §2, §3"}, "[5]": {"system": "OKF6/TERT and THP-1 cells", "test": "Cell viability by XTT assay and trypan blue exclusion", "format": "cell-based, Human", "conditions": "highest concentration of mPE", "method": "To examine the effect of mPE on the inflammatory response, gingival epithelial cells (the OKF6/TERT cell line) and the monocytic cell line, THP-1, were treated with rhIL-1β (100 ng/ml) in the presence of increasing concentrations (0, 2, or 5 ng/ml) of mPE. Secreted levels of IL-8 were measured by ELISA. […] The experiment was carried out in quadruplicate; error bars represent±SD. The inhibition by mPE was significant at both concentrations with p<0.01. […] This was not a result of cytotoxicity, as cell viability (as measured by XTT assay and trypan blue exclusion) was no lower than 93-96% at the highest concentration of mPE. To determine whether this was due to an effect on IL-8 secretion or on gene regulation, mRNA was isolated from treated cells IL-8 mRNA levels were quantified by QPCR."}, "[6]": {"system": "IL-8 mRNA", "test": "IL-8 mRNA levels by QPCR in OKF6/TERT cells", "format": "cell-based, Human", "conditions": "IL-1β-treated cells, normalized to β2-Microglobulin, FIG. 4A", "method": "Total cellular RNA was isolated from cultures using QIAshredder and RNeasy Mini Kit (Qiagen Valencia, Calif.). Total RNA was reversed transcribed using Superscript II reverse transcriptase kit as described by the manufacturer (Invitrogen, CA). Quantitative PCR (qPCR) was carried out using SYBR Green in a MyiQ iCycler (Bio-Rad). A total of 1 μl of cDNA (described above) was analyzed using final concentration of 100 nM of primers, 2×SYBR Green PCR Master Mix (Applied Biosystems, Foster City, Calif., USA) in volume of 20 μl. Prmer sequences were:\nAmplification was carried out for 50 cycles (95° C., 15 seconds; 60° C., 60 seconds). The relative for mRNA expression in each sample was calculated based on its Ct value comparison to Ct of a housekeeping gene. […]\nTo examine the effect of mPE on the inflammatory response, gingival epithelial cells (the OKF6/TERT cell line) and the monocytic cell line, THP-1, were treated with rhIL-1β (100 ng/ml) in the presence of increasing concentrations (0, 2, or 5 ng/ml) of mPE. Secreted levels of IL-8 were measured by ELISA. […] This was not a result of cytotoxicity, as cell viability (as measured by XTT assay and trypan blue exclusion) was no lower than 93-96% at the highest concentration of mPE. To determine whether this was due to an effect on IL-8 secretion or on gene regulation, mRNA was isolated from treated cells IL-8 mRNA levels were quantified by QPCR. […]"}, "[7]": {"system": "phosphorylated IκB / NF-κB activation", "test": "IκB phosphorylation (CASE ELISA) in OKF6/TERT cells", "format": "cell-based, Human", "conditions": "100 ng/ml IL-1β, 2 or 4 hours, 0, 2 or 5 μg/ml mPE, FIG. 4B", "method": "Growth medium from stimulated cultures was collected either by aspiration (from keratinocytes) or after centrifugation at 1000 rpm for 15 minutes (for THP-1 cells). Cell debris was removed by centrifugation at 8,000 g (12,000 rpm) for 10 minutes at 4° C. To quantify IL-8 levels, the Human IL-8 Single Analyte ELISArray Kit (SA bioscience, MD) was used according to the manufacturer's protocol. The Cellular Activation of Signaling ELISA kit IKBα (SA bioscience, MD) was used to quantify both phosphorylated and whole IkBα levels in OKF6/TERT cells grown in a 96-well plate. All assays were performed in duplicate. OKF6/TERT cells were treated with mPE as above in the presence or absence of IL-1β. Total mRNA was isolated and IL-8 and hBD-2 mRNA levels were quantified by QPCR normalized to β2-Microglobulin. Levels are shown relative to the no-mPE sample for each group. The experiment was carried out in triplicate; error bars represent±SD. […] To determine whether this was due to an inhibition of NF-κB activation, gingival epithelial cells were treated with mPE in the presence or absence of 100 ng/ml IL-1β, and IκB phosphorylation levels were quantified using the CASE assay (SA Biosciences, MD), and quantified relative to total IκB levels). In particular, OKF6/TERT cells were grown in 96-well plates, treated with 100 ng/ml IL-1β for 2 or 4 hours in the presence of 0, 2 or 5 μg/ml mPE. […]"}, "[8]": {"system": "A. actinomycetemcomitans", "conditions": "planktonic form; cited from earlier work"}, "[9]": {"system": "P. gingivalis", "conditions": "planktonic form; cited from earlier work"}, "[10]": {"system": "LPS-mediated TNF-α production, macrophage cell line", "conditions": "macrophage cells; cited from earlier work"}, "[11]": {"system": "oral pathogens, biofilm cultures of Streptococcus mutans", "conditions": "Gram-positive and -negative, incl. S. mutans biofilm cultures; cited from earlier work"}, "[12]": {"conditions": "rhIL-1β 100 ng/ml, mPE 0, 2, or 5 ng/ml as printed, FIG. 3"}},
  "note": "“Also recorded” adds a separate entry of the source.",
  "data": [
    {"compound": "NCCc1cc(Br)cc(C#Cc2cccc(C#Cc3cc(Br)cc(CCN)c3)c2)c1", "note": "[mPE]", "values": [
      {"measurement": "reduction of metabolic activity (XTT)", "setting": "[1]; 2-hour exposure, 16 ng/ml, FIG. 1C", "result": 60, "unit": "%"},
      {"measurement": "antimicrobial activity against biofilms (XTT metabolic activity)", "setting": "[1]; 24 hours, FIG. 1A", "result": "potent antimicrobial activity"},
      {"measurement": "reduction in viable colonies (plating) and biomass (crystal violet)", "setting": "[1]; FIG. 1B", "result": "reduction in viable colonies paralleled the results from the XTT assay"},
      {"measurement": "activity against biofilm cultures", "setting": "[2]", "result": "potent activity"},
      {"measurement": "concentration at which biofilm and metabolic activity decrease to a baseline", "setting": "[2]; 24 hours anaerobic, XTT and crystal violet, FIG. 2", "result": "4 to 8", "unit": "µg/mL"},
      {"measurement": "concentration sufficient to inhibit IL-1β-induced secretion of IL-8", "setting": "[3]; gingival epithelial cells", "result": 2, "unit": "µg/mL"},
      {"measurement": "inhibition of IL-8 secretion", "setting": "[3]; [12]", "result": "dose-dependent inhibition"},
      {"measurement": "concentration sufficient to inhibit IL-1β-induced secretion of IL-8", "setting": "[4]; THP-1 cells", "result": 2, "unit": "µg/mL"},
      {"measurement": "inhibition of IL-8 secretion", "setting": "[4]; [12]", "result": "dose-dependent inhibition"},
      {"measurement": "cell viability", "setting": "[5]", "result": "93-96%"},
      {"measurement": "IL-8 mRNA levels", "setting": "[6]", "result": "inhibitory effect is at the level of gene expression"},
      {"measurement": "IL-1β-stimulated phosphorylated IκB levels / total IκB", "setting": "[7]", "result": "reduction in activation of NF-κB; also recorded: rapid, dose-dependent reduction"},
      {"measurement": "MIC", "setting": "[8]", "result": 0.4, "unit": "µg/mL"},
      {"measurement": "MIC", "setting": "[9]", "result": 2.5, "unit": "µg/mL"},
      {"measurement": "LPS-mediated TNF-α production", "setting": "[10]", "result": "inhibited"},
      {"measurement": "activity against oral pathogens", "setting": "[11]", "result": "active"}
    ]}
  ]
}
